Molecular target: GTPase HRas (Homo sapiens) (UniProt P01112)
Assay: inhibition of fluorescent GTP binding to wild-type Ras – biochemical, pyrazoline analogs, multiplex bead flow cytometry, SAR follow-up (AID 2047)
Settings: GST-Ras beads, Bodipy-FL-GTP binding, Ki calculated from EC50

Chain of GTPase HRas (Homo sapiens) (P01112 whole entry, looked up): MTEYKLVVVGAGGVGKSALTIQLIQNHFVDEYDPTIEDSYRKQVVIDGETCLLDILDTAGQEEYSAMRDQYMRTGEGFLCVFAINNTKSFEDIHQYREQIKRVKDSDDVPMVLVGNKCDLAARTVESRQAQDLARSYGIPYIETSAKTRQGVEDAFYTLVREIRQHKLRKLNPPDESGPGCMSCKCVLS

SMILES	Ki [nM]
COc1ccc(C2CC(c3ccc(Cl)cc3)=NN2c2ccccc2)cc1OC (stereo unspecified)	10
COc1ccc(C2=NN(c3ccccc3)C(c3ccccc3C(F)(F)F)C2)cc1 (stereo unspecified)	2770
COc1ccc(C2=NN(c3ccccc3F)C(c3ccc(F)cc3)C2)cc1 (stereo unspecified)	2110
CN(C)c1ccc(C2CC(c3ccccc3)=NN2c2ccccc2)cc1 (stereo unspecified)	10
NS(=O)(=O)c1ccc(N2N=C(c3ccc(Cl)cc3)CC2c2ccccc2)cc1 (stereo unspecified)	10
COc1ccc(C2CC(c3ccccc3)=NN2c2ccc(Cl)c(C(=O)O)c2)cc1 (stereo unspecified)	160
